Source: article PMC4941374, “Therapy of pancreatic cancer via an EphA2 receptor-targeted delivery of gemcitabine” (Oncotarget, 2016)
Entries after “also recorded” stand apart in the source; their conditions may differ.

Experiments:
[1] = test system: MIA PaCa-2-luc pancreatic cancer xenografts; assay: MIA PaCa-2-luc subcutaneous xenograft, YNH-L2-Gemcitabine study; assay type: in vivo, human tumor cells in athymic nude mice; details: for effect on tumor growth: 10 mg/kg Gemcitabine or equimolar conjugate, tail vein, twice per week for 4 weeks, 9 mice/group, caliper tumor volume and BLI; for survival time: Kaplan-Meier, days, mice sacrificed when moribund, Supplementary Figure S2 top
Protocol: MIA PaCa-2-luc cells were used to create bilateral subcutaneous xenografts in athymic nude mice. […] Cells were injected into each flank and then allowed to grow for approximately 1 week. At this point, mice were imaged using BLI and treatment was subsequently initiated. Mice were divided into 4 groups (PBS, Gemcitabine, YDH-L2-Gemcitabine, YNH-L2-Gemcitabine) with 9 mice/group. YDH-L2-Gemcitabine is a scrambled control, where the peptide attached to Gemcitabine should not be specific for EphA2 and, therefore, should not bind to the receptor. Animals were treated 2 times per week via tail vein injection for 4 weeks. A dose of 10 mg/kg Gemcitabine was used along with equimolar doses of YDH-L2-Gemcitabine and YNH-L2-Gemcitabine. At the end of 4 weeks, animals were again imaged and treatment was ended.
(§1) Isothermal Titration Calorimetry (ITC) measurements were obtained with Model ITC200 from Microcal/GE Life Sciences. For in vivo studies, all drugs were diluted in 10% Tween-80, 10% DMSO, and 80% PBS.
(§2) 5 × 10^6 MIA PaCa-2-luciferase cells were used to establish bilateral subcutaneous tumors on the flanks of 8–10 week old male athymic nude mice. Studies were done as previously described. Treatment began when tumors reached a palpable size (∼50–100 mm^3) with 9 mice per group. All drugs were administered by tail vein injection twice per week for 4 weeks, for a total of 8 injections. […] BLI measurements were performed at the beginning and end of the study. During imaging, mice were placed in the imaging chamber and maintained with 2% isoflurane gas anesthesia at a flow rate of approximately 0.5–1 L/min per mouse. Anesthetized mice were injected IP with 150 mg/kg body weight D-Luciferin (Xenogen Corporation, Alameda, CA). After approximately 10 min, mice were imaged using a charge-coupled-device (CCD) camera coupled to the Xenogen in vivo imaging (IVIS) imaging system (Caliper Life Sciences, Inc., Hopkinton, MA).
Tumors were measured twice per week using calipers. For in vivo studies, data shown are the mean + SEM and for statistical comparisons we used the two-way Anova analyses (GraphPad). After their last injection, mice were kept for 1 additional week to monitor tumor growth and imaged at the end of that week. The mice were then kept to monitor for the effects of treatment on survival. Mice were kept until reaching a moribund status and they were then sacrificed at that time.

[2] = test system: EphA3 ligand binding domain (EphA3-LBD); assay: Isothermal titration calorimetry (ITC), EphA3 LBD; details: 50 mM phosphate buffer pH 6.5, 100 mM NaCl, ~50% sequence identity with the EphA2 LBD
Protocol: (§3) To further verify the binding affinity and selectivity of the resulting conjugates for the EphA2 ligand binding domain (LBD), we expressed and purified EphA2 and […]. These proteins were dissolved to a final concentration of 100 μM in 50 mM phosphate buffer (pH = 6.5), containing 100 mM NaCl.
(§4) All linear peptides and peptide mimetics were assembled using standard Fmoc peptide synthesis protocol with the Rink amide resin on 433A Peptide Synthesizer (Applied Bio-Systems). In general, in each coupling reaction, approximately 10 equivalents of Fmoc-amino acid, 0.45 M solution of HOBt/HBTU (9 equiv) in DMF, 2 M solution of DIEA in NMP were used, for about 9 minutes. Fmoc de-protection was performed with 20% piperidine in DMF for 10 min. Each peptide was subsequently cleaved from the resin and all protecting groups removed by exposure to a 94% TFA, 2 % water, 2% tri-isopropylsilane, 2% phenol mixture for approximately 3 h. The TFA mixture was subsequently removed under reduced pressure and the peptides were precipitated in diethyl ether, centrifuged, and washed with diethyl ether prior to drying in high vacuum. The crude peptides were purified by preparative reverse phase HPLC. The final compounds were characterized by NMR and MALDI-Mass. […] EphA2-LBD and EphA3-LDB were expressed as reported recently. […]

[3] = test system: MIA PaCa-2-luc pancreatic cancer xenografts; assay: MIA PaCa-2-luc subcutaneous xenograft, 123B9-L2-Gem study; assay type: in vivo, human tumor cells in athymic nude mice
Protocol: Similarly, in a separate experiment we compared the efficacy of equimolar doses of Gemcitabine and 123B9-L2-Gem (Figure 3C, 3D).
as §1, §2
Tumors were measured twice per week using calipers. […]

[4] = target: T1, EphA2 ligand binding domain (EphA2-LBD) (Homo sapiens, UniProt P29317); assay: Isothermal titration calorimetry (ITC), EphA2 LBD; details: 50 mM phosphate buffer pH 6.5, 100 mM NaCl, as given in legend
T1 construct: made in house
T1 sequence (P29317 28-206 limits assumed): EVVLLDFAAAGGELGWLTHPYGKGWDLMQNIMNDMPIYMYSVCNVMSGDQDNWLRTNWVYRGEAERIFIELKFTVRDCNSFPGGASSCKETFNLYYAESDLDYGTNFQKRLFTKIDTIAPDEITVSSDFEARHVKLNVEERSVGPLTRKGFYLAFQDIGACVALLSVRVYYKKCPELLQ
Protocol: as §3, §4

tumors expressing hENT1 = test system: tumors expressing hENT1; parameters: method as in PMID 16818496; details: high versus lower hENT1 expression; ref [5]; cited from earlier work
Description: (§5) Though there are multiple mechanisms of Gemcitabine resistance, one important mechanism revolves around expression of this protein. […] Patients with higher hENT1 expression have tumors that can more readily take ...

[5] = test system: metastatic pancreatic cancer; parameters: method as in PMID 24131140; details: 861 patients, ref [36]; cited from earlier work
Description: There is a vital need to develop novel therapies that provide greater clinical benefit to patients without undue toxicity. A Phase 3 clinical study in patients with metastatic pancreatic cancer evaluated nab-Paclitaxel (Abraxane) + Gemcitabine versus Gemcitabine alone in a total of 861 patients.

pancreatic cancer = details: 126 patients, 63 per group; ref [3]; cited from earlier work
Description: In 1997, Burris, et al. published a clinical study comparing Gemcitabine to 5-Fluoruracil (5-FU) for the treatment of pancreatic cancer. In this study, 126 patients were enrolled with 63 per treatment group. […] The median survival was 5.65 months for Gemcitabine and 4.41 months for 5-FU. […] This trial encouraged the ...

hENT1 = test system: hENT1; parameters: method as in PMID 22978251; details: sodium-independent transporter; ref [4]; cited from earlier work
Description: as §5

With CCCC[C@H](NC(=O)[C@@H]1CCCN1C(=O)[C@@H](NC(=O)[C@H](CO)NC(=O)[C@H](CC(=O)O)NC(=O)[C@@H]1CCCN1C(=O)[C@H](Cc1ccc(O)cc1)NC(=O)[C@H](C)NC(=O)[C@H](CO)NC(=O)[C@@H](N)Cc1ccc(O)cc1)C(C)C)C(=O)N[C@@H](CCO)C(=O)N[C@@H](CO)C(=O)N[C@@H](CCCCNC(=O)CCCc1cn(CCCCCC(=O)O[C@@H]2[C@@H](CO)O[C@@H](n3ccc(N)nc3=O)C2(F)F)nn1)C(N)=O [YNH-L2-Gem] the “effect on tumor growth” value [1] was “significant efficacy was observed”, the “effect on tumor growth” value ([1]; listed as YNH-L2-Gemcitabine) was “showed the greatest inhibition of tumor growth of all groups evaluated; also recorded: inhibits tumor growth in vivo to a greater extent as compared to Gemcitabine” and the survival time [1] was “prolong survival”. For the same compound, the survival time ([1]; listed as YNH-L2-Gemcitabine) was “significant increase in the median survival time compared to untreated mice” and the “binding to EphA3 LBD (in words)” value [2] was “No appreciable binding was detected”.
In the case of CCCC[C@H](NC(=O)[C@@H]1CCCN1C(=O)[C@@H](NC(=O)[C@H](CO)NC(=O)[C@H](CC(=O)O)NC(=O)[C@@H]1CCCN1C(=O)[C@H](Cc1ccc(O)cc1)NC(=O)[C@H](C)NC(=O)[C@H](CO)NC(=O)COc1ccc(F)c(Cl)c1)C(C)C)C(=O)N[C@@H](CCO)C(=O)N[C@@H](CO)C(=O)N[C@@H](CCCCNC(=O)CCCc1cn(CCCCCC(=O)O[C@@H]2[C@@H](CO)O[C@@H](n3ccc(N)nc3=O)C2(F)F)nn1)C(N)=O [123B9-L2-Gem], the survival time ([3]; Kaplan-Meier, days, mice sacrificed when moribund, Supplementary Figure S2 bottom) is reported as “significantly longer than both untreated and Gemcitabine treated groups; also recorded: significant increase in survival time; also recorded: prolong survival”, the “effect on tumor growth” value ([3]; equimolar doses, equivalent of 10 mg/Kg Gemcitabine, tail vein, twice per week for 4 weeks, caliper tumor volume and BLI, 10 mg/kg) is reported as “significantly more effective than gemcitabine alone in suppressing tumor growth; also recorded: significant efficacy was observed” and the “binding to EphA3 LBD (in words)” value [2] is reported as “No appreciable binding was detected”. The “ΔH, binding to EphA2 LBD” value [4] was -11 kcal/mol.
In the case of Nc1ccn([C@@H]2O[C@H](CO)[C@@H](O)C2(F)F)c(=O)n1 [Gemcitabine], the “survival advantage with high tumor hENT1 expression” value (tumors expressing hENT1) is given as “greater survival advantage with Gemcitabine treatment as compared to those with lower hENT1 expression”, the median survival [5] is given as 6.7 months and the response rate [5] is given as 7%. For the same compound, the “survival rate at 1 year” value [5] was 22%, the “survival rate at 2 years” value [5] was 4% and the “effect on tumor growth” value [1] was “had a modest effect on tumor growth; also recorded: did not exhibit significant efficacy compared to mice treated with vehicle only as control”. The survival time [1] was “significant increase in the median survival time compared to untreated mice”, the median survival (pancreatic cancer) was 5.65 months and the “patients alive at 12-month time point” value (pancreatic cancer) was 18%. The “patients with clinical benefit” value (pancreatic cancer) was 23.8% and the “transport by hENT1” value (hENT1) was “preferentially transport Gemcitabine”.
For O=c1[nH]cc(F)c(=O)[nH]1 [5-FU, 5-Fluoruracil], the median survival (pancreatic cancer) is given as 4.41 months, the “patients alive at 12-month time point” value (pancreatic cancer) is given as 2% and the “patients with clinical benefit” value (pancreatic cancer) is given as 4.8%.
